Test results: PubChem BioAssay AID1259407 (Chemical Carcinogenesis Research Information System (CCRIS), 2018)
The source made the active and inactive calls. How the calls were made is not given here.

System: CCRIS mutagenicity, Ames/micronucleus/aberration tests
Test: CCRIS mutagenicity studies
[1] = Test System: AMES SALMONELLA TYPHIMURIUM, Strain/Indicator: TA98, Metabolic Activation: NONE, Method: PREINCUBATION
[2] = Test System: AMES SALMONELLA TYPHIMURIUM, Strain/Indicator: TA100, Metabolic Activation: NONE, Method: PREINCUBATION
[3] = Test System: AMES SALMONELLA TYPHIMURIUM, Strain/Indicator: TA1535, Metabolic Activation: NONE, Method: PREINCUBATION
[4] = Test System: AMES SALMONELLA TYPHIMURIUM, Strain/Indicator: TA100, Metabolic Activation: NONE, Method: STANDARD PLATE

## C#CCNC(=NCCSCc1nc[nH]c1C)NC#N
[1]
  mutagenic call: inactive; negative
Test System: AMES SALMONELLA TYPHIMURIUM, Strain/Indicator: TA98, Metabolic Activation: RAT, LIVER, S-9, SODIUM PHENOBARBITAL AND BETA-NAPHTHOFLAVONE, Method: PREINCUBATION
  mutagenic call: inactive; negative
[2]
  mutagenic call: inactive; negative
Test System: AMES SALMONELLA TYPHIMURIUM, Strain/Indicator: TA100, Metabolic Activation: RAT, LIVER, S-9, SODIUM PHENOBARBITAL AND BETA-NAPHTHOFLAVONE, Method: PREINCUBATION
  mutagenic call: inactive; negative
[3]
  mutagenic call: inactive; negative
Test System: AMES SALMONELLA TYPHIMURIUM, Strain/Indicator: TA1535, Metabolic Activation: RAT, LIVER, S-9, SODIUM PHENOBARBITAL AND BETA-NAPHTHOFLAVONE, Method: PREINCUBATION
  mutagenic call: inactive; negative
Test System: AMES SALMONELLA TYPHIMURIUM, Strain/Indicator: TA1537, Metabolic Activation: NONE, Method: PREINCUBATION
  mutagenic call: inactive; negative
Test System: AMES SALMONELLA TYPHIMURIUM, Strain/Indicator: TA1537, Metabolic Activation: RAT, LIVER, S-9, SODIUM PHENOBARBITAL AND BETA-NAPHTHOFLAVONE, Method: PREINCUBATION
  mutagenic call: inactive; negative
Test System: AMES SALMONELLA TYPHIMURIUM, Strain/Indicator: TA1538, Metabolic Activation: NONE, Method: PREINCUBATION
  mutagenic call: inactive; negative
Test System: AMES SALMONELLA TYPHIMURIUM, Strain/Indicator: TA1538, Metabolic Activation: RAT, LIVER, S-9, SODIUM PHENOBARBITAL AND BETA-NAPHTHOFLAVONE, Method: PREINCUBATION
  mutagenic call: inactive; negative
Test System: CHINESE HAMSTER V-79, Strain/Indicator: V-79/6-THIOGUANINE, Metabolic Activation: NONE, Method: STANDARD PLATE
  mutagenic call: inactive; negative
Test System: CHINESE HAMSTER V-79, Strain/Indicator: V-79/6-THIOGUANINE, Metabolic Activation: RAT, LIVER, S-9, SODIUM PHENOBARBITAL AND BETA-NAPHTHOFLAVONE, Method: STANDARD PLATE
  mutagenic call: inactive; negative
Test System: CHINESE HAMSTER V-79, Strain/Indicator: V-79/OUABAIN, Metabolic Activation: NONE, Method: STANDARD PLATE
  mutagenic call: inactive; negative
Test System: CHINESE HAMSTER V-79, Strain/Indicator: V-79/OUABAIN, Metabolic Activation: RAT, LIVER, S-9, SODIUM PHENOBARBITAL AND BETA-NAPHTHOFLAVONE, Method: STANDARD PLATE
  mutagenic call: inactive; negative
Test System: E. COLI, Strain/Indicator: WP2 (PKM101), Metabolic Activation: NONE, Method: PREINCUBATION
  mutagenic call: inactive; negative
Test System: E. COLI, Strain/Indicator: WP2 (PKM101), Metabolic Activation: RAT, LIVER, S-9, SODIUM PHENOBARBITAL AND BETA-NAPHTHOFLAVONE, Method: PREINCUBATION
  mutagenic call: inactive; negative
Test System: E. COLI, Strain/Indicator: WP2, Metabolic Activation: NONE, Method: PREINCUBATION
  mutagenic call: inactive; negative
Test System: E. COLI, Strain/Indicator: WP2, Metabolic Activation: RAT, LIVER, S-9, SODIUM PHENOBARBITAL AND BETA-NAPHTHOFLAVONE, Method: PREINCUBATION
  mutagenic call: inactive; negative
Test System: E. COLI, Strain/Indicator: WP2 UVRA (PKM101), Metabolic Activation: NONE, Method: PREINCUBATION
  mutagenic call: inactive; negative
Test System: E. COLI, Strain/Indicator: WP2 UVRA (PKM101), Metabolic Activation: RAT, LIVER, S-9, SODIUM PHENOBARBITAL AND BETA-NAPHTHOFLAVONE, Method: PREINCUBATION
  mutagenic call: inactive; negative
Test System: E. COLI, Strain/Indicator: WP2 UVRA, Metabolic Activation: NONE, Method: PREINCUBATION
  mutagenic call: inactive; negative
Test System: E. COLI, Strain/Indicator: WP2 UVRA, Metabolic Activation: RAT, LIVER, S-9, SODIUM PHENOBARBITAL AND BETA-NAPHTHOFLAVONE, Method: PREINCUBATION
  mutagenic call: inactive; negative

## Oc1ccc2c(ccc3c4ccccc4ccc23)c1
Test System: AMES SALMONELLA TYPHIMURIUM, Strain/Indicator: TA98, Metabolic Activation: RAT, LIVER, S-9, AROCLOR 1254, Method: STANDARD PLATE
  mutagenic call: inactive; negative
[4]
  mutagenic call: inactive; negative

## O=C(O)/C=C/C(=O)O
Test System: AMES SALMONELLA TYPHIMURIUM, Strain/Indicator: TA97, Metabolic Activation: HAMSTER, LIVER, S-9, AROCLOR 1254 (10 OR 30%), Method: PREINCUBATION
  mutagenic call: inactive; negative
Test System: AMES SALMONELLA TYPHIMURIUM, Strain/Indicator: TA97, Metabolic Activation: NONE, Method: PREINCUBATION
  mutagenic call: inactive; negative
Test System: AMES SALMONELLA TYPHIMURIUM, Strain/Indicator: TA97, Metabolic Activation: RAT, LIVER, S-9, AROCLOR 1254 (10 OR 30%), Method: PREINCUBATION
  mutagenic call: inactive; negative
Test System: AMES SALMONELLA TYPHIMURIUM, Strain/Indicator: TA97, Metabolic Activation: RAT, LIVER, S-9, AROCLOR 1254, Method: PREINCUBATION
  mutagenic call: inactive; negative
Test System: AMES SALMONELLA TYPHIMURIUM, Strain/Indicator: TA98, Metabolic Activation: HAMSTER, LIVER, S-9, AROCLOR 1254 (10 OR 30%), Method: PREINCUBATION
  mutagenic call: inactive; negative
[1]
  mutagenic call: inactive; negative
Test System: AMES SALMONELLA TYPHIMURIUM, Strain/Indicator: TA98, Metabolic Activation: RAT, LIVER, S-9, AROCLOR 1254 (10 OR 30%), Method: PREINCUBATION
  mutagenic call: inactive; negative
Test System: AMES SALMONELLA TYPHIMURIUM, Strain/Indicator: TA100, Metabolic Activation: HAMSTER, LIVER, S-9, AROCLOR 1254 (10 OR 30%), Method: PREINCUBATION
  mutagenic call: inactive; negative
[2]
  mutagenic call: inactive; negative
Test System: AMES SALMONELLA TYPHIMURIUM, Strain/Indicator: TA100, Metabolic Activation: RAT, LIVER, S-9, AROCLOR 1254 (10 OR 30%), Method: PREINCUBATION
  mutagenic call: inactive; negative
Test System: AMES SALMONELLA TYPHIMURIUM, Strain/Indicator: TA102, Metabolic Activation: NONE, Method: PREINCUBATION
  mutagenic call: inactive; negative
Test System: AMES SALMONELLA TYPHIMURIUM, Strain/Indicator: TA102, Metabolic Activation: RAT, LIVER, S-9, AROCLOR 1254, Method: PREINCUBATION
  mutagenic call: inactive; negative
Test System: AMES SALMONELLA TYPHIMURIUM, Strain/Indicator: TA1535, Metabolic Activation: HAMSTER, LIVER, S-9, AROCLOR 1254 (10 OR 30%), Method: PREINCUBATION
  mutagenic call: inactive; negative
[3]
  mutagenic call: inactive; negative
Test System: AMES SALMONELLA TYPHIMURIUM, Strain/Indicator: TA1535, Metabolic Activation: RAT, LIVER, S-9, AROCLOR 1254 (10 OR 30%), Method: PREINCUBATION
  mutagenic call: inactive; negative
Test System: MOUSE LYMPHOMA, Strain/Indicator: L5178Y (TK+/TK-), Metabolic Activation: NONE, Method: SUSPENSION/PLATE
  mutagenic call: active; positive. reevaluation of results: positive
Test System: MOUSE LYMPHOMA, Strain/Indicator: L5178Y (TK+/TK-), Metabolic Activation: RAT, LIVER, S-9, AROCLOR 1254, Method: SUSPENSION/PLATE
  mutagenic call: active; positive. reevaluation of results: positive

## BrCC(Br)CBr
Test System: AMES SALMONELLA TYPHIMURIUM, Strain/Indicator: TA100, Metabolic Activation: RAT, LIVER, MICROSOMES, PHENOBARBITAL, NADPH COFACTORS, Method: STANDARD PLATE
  mutagenic call: active; positive
Test System: AMES SALMONELLA TYPHIMURIUM, Strain/Indicator: TA100, Metabolic Activation: RAT, LIVER, MICROSOMES, PHENOBARBITAL, Method: STANDARD PLATE
  mutagenic call: inactive; negative

## Cc1ccc2c(c1)c(=NC(=O)c1ccccc1[N+](=O)[O-])sn2C(=O)c1ccccc1[N+](=O)[O-]
Test System: AMES SALMONELLA TYPHIMURIUM, Strain/Indicator: TA100, Metabolic Activation: S-9, Method: STANDARD PLATE
  mutagenic call: inactive; negative

## Cn1nnc2c(C(N)=O)ncn2c1=O
End Point: IN VITRO CHROMOSOMAL ABERRATIONS, Test System: HUMAN HCT116/3-6 CELLS, Metabolic Activation: NONE
  mutagenic call: active; positive
End Point: IN VITRO CHROMOSOMAL ABERRATIONS, Test System: HUMAN HCT116 CELLS, Metabolic Activation: NONE
  mutagenic call: active; positive
End Point: IN VITRO CHROMOSOMAL ABERRATIONS, Test System: HUMAN MT1 CELLS, Metabolic Activation: NONE
  mutagenic call: active; positive
End Point: IN VITRO CHROMOSOMAL ABERRATIONS, Test System: HUMAN TK6 CELLS, Metabolic Activation: NONE
  mutagenic call: active; positive

## Cc1occc(=O)c1[O-].Cc1occc(=O)c1[O-].Cc1occc(=O)c1[O-].[Al+3]
Test System: AMES SALMONELLA TYPHIMURIUM, Strain/Indicator: TA92, Metabolic Activation: NONE, Method: STANDARD PLATE
  mutagenic call: inactive; negative
Test System: AMES SALMONELLA TYPHIMURIUM, Strain/Indicator: TA98, Metabolic Activation: NONE, Method: STANDARD PLATE
  mutagenic call: inactive; negative
[4]
  mutagenic call: inactive; negative
Test System: AMES SALMONELLA TYPHIMURIUM, Strain/Indicator: TA104, Metabolic Activation: NONE, Method: STANDARD PLATE
  mutagenic call: inactive; negative
